Assays:
Assay type in all cases: cell-based
[1] = system: type I calli obtained from corn plant line (Pa91xH99)xPa91 (PHP); test: Agrobacterium co-cultivation of acetosyringone pre-treated type I calli, PHP line
[2] = system: type I calli obtained from corn plant line Pa91; test: Agrobacterium co-cultivation of acetosyringone pre-treated type I calli, Pa91 line
[3] = system: type I calli from the PHH corn line; test: Agrobacterium-mediated transformation of plant-phenolic pre-treated type I callus from corn; details: for Approximate mean transformation frequency with pretreatment: 5 days on 100-200 μM acetosyringone; for PAT-positive plant lines: about 4000 pre-treated callus fragments
Source text: Type I callus fragments were obtained essentially as described in WO 92/09696. Immature embryos from corn line (Pa91xH99)xH99 (PHH-line) were excised from the kernel 9-12 days after pollination, surface sterilized and plated on Mahi1VII medium for the induction of type I callus. Type I callus was subcultured on the same medium with one month intervals for about two to six months. Next, type I callus was finely cut in fragments with an average length of about 1.5 mm, and the resulting fragments were incubated-for 5 days on LSIDhy1.5VII substrate supplemented with 100-200 μM acetosyringone. The pre-induced callus pieces were collected and without further wounding, immersed in a suspension of the appropriate Agrobacterium strain for about 3 to about 20 minutes. The bacterial suspension was obtained in the following way: bacteria were grown for 3 to 6 days on MAG medium [minimal A medium (Jeffrey Miller, 1972) supplemented with 2 g/L glucose] or AB medium (Chilton et al., 1974). The bacteria were harvested, and resuspended in liquid LSI substrate supplemented with 100-200 μM acetosyringone, at a concentration of about 5×10^9 cells/ml.
After immersion in the bacterial suspension, the callus fragments were co-cultivated on LSIIDhy1.5XI medium, supplemented with 100-200 μM acetosyringone, at about 25° C. for 3 to 6 days (3 days for LBA-type strain, 6 days for EHA-type strain).
After co-cultivation, the tissue was transferred to Ahx1.5VIIp500ino1000ppT10 and cultured for3 to 4 weeks. Proliferating, phosphinotricin (PPT)-resistant calli were excised and subcultured at least twice, with 3 week subculture intervals on Mh1VIIp500ppT5. Embryogenic PPT-resistant calli were plated on regeneration medium (A37VIIp500 ppT2.), and the embryogenic tissue was subcultured twice, with 10 to 14 day intervals, on the same medium. Small plants were transferred to glass containers containing A6%VIIp500ppT2 substrate for further growth, and developing shoots were then transferred to half-strength MS medium supplemented with 1.5% sucrose to allow further shoot elongation as well as rooting. Plants were tested for phosphinothricin acetyl transferase (PAT) activity, and PAT-positive plants were transferred to the greenhouse. PAT-positive plants were tested for the presence of the transgene by Southern hybridization.
Type I callus fragments were obtained as described in Example I and incubated for 5 days on LSIDhy1.5VII substrate supplemented with 100 μM of acetosyringone, followed by co-cultivation with Agrobacterium strain A3532 and A3638. For strain A3532 only I PAT-positive plant was obtained, even with acetosyringone pretreatment (transformation frequency<0.1%). However, the presence of the functional virB promoter preceding the virB11 open reading frame on the T-DNA vector, improved the transformation efficiency (see Table I) at least almost ten times.
Type I callus fragments were obtained as described in Example 1 and incubated for 5 days on LSIDhy1.5VII substrate supplemented with 100 μM of the plant phenolic compounds of Table II. Approximately 200 pre-induced callus fragments were co-cultivated with Agrobacterium strain A3637 (or A3638).
Type I callus fragments were obtained as described in Example 1 and incubated for 5 days on LSIDhy1.5VII substrate supplemented with either 200 μM of acetosyringone or a combination of 100 μM acetosyringone and 100 μM p-hydroxybenzoic acid. About 250 callus pieces were co-cultivated with Agrobacterium strain A3533. Whereas 2 shoot-regenerating lines (comprising 1 PAT-positive line) were obtained on PPT containing media after pre-induction on acetosyringone (frequency about 1%), 7 shoot regenerating lines (comprising 5 PAT-positive lines) were obtained on PPT containing media after pre-induction on acetosyringone plus p-hydroxybenzoic acid (frequency about 3%).

[4] = system: type I callus from corn; test: Transformation by electroporation of acetosyringone pre-treated type I callus from corn; details: 5 days on 100 μM acetosyringone
Procedure: Finely chopped pieces of calli, derived from type I callus and pre-incubated for 5 days on 100 μM acetosyringone-containing medium, as described in Example 1, were subjected without further wounding to electroporation as described in […]/09696. Briefly, about 50 callus pieces were resuspended in 100 μl EPM-KCl buffer and preplasmolyzed for 3 hr at room temperature. Next the callus pieces were washed in EPM+KCl buffer and transferred to an electrocuvette in EPM+KCl buffer. Plasmid DNA (10 μg of pDE110) was added, and the DNA was incubated with the callus fragments for about 1 hr at room temperature. Electroporation was carried out using standard conditions (1 pulse with initial field strength 375 V/cm from a 900 μF capacitor). The calli were never kept on ice. Phosphinotricin-resistant calli were selected and plants regenerated as described ([…]/09696). Phosphinotricin acetyl transferase activity was detected as described ([…]/09696).

[5] = 5 days on 100 μM compound, approximately 200 callus fragments, strain A3637 (or A3638)
[6] = strain A3533, about 250 callus pieces, 200 μM acetosyringone or 100 μM acetosyringone + 100 μM p-hydroxybenzoic acid, 5 days
[7] = electroporation of about 530 callus pieces

Q: Which results are given for `COc1cc(C(C)=O)cc(OC)c1O` [acetosyringone, 3,5-dimethoxy-4-hydroxyacetophenone]?
A: effect of pre-treatment on transformation frequency [1]: Enhancement of transformation frequency; effect of pre-treatment on transformation frequency [2]: Enhancement of transformation frequency; Number of PAT-positive lines [3, 5]: 2; Transformation frequency [3, 5]: 1%; Approximate mean transformation frequency with pretreatment ([3]; Agrobacterium strain A3533): 0.8%; Approximate mean transformation frequency with pretreatment ([3]; Agrobacterium strain A3637): 0.8%; Approximate mean transformation frequency with pretreatment ([3]; Agrobacterium strain A3638): 0.9%; low concentration still giving a good effect on transformation efficiency ([3]; pretreatment medium): approximately 25 μM; optimal concentration in the medium ([3]; pretreatment medium): approximately 200 μM; PAT-positive lines ([3]; strain A3460, about 1700 pre-treated callus fragments): 5; Transformation frequency ([3]; strain A3532, 5 days on 100 μM acetosyringone): < 0.1%; PAT-positive lines [3, 6]: 1; frequency [3, 6]: about 1%; shoot-regenerating lines on PPT containing media [3, 6]: 2; PAT-positive plant lines ([3]; strain A3533): 30; PAT-positive plant lines ([3]; strain A3637): 33; PAT-positive plant lines ([3]; strain A3638): 37; average transformation frequencies ([3]; strains A3638, A3533 and A3637, about 4000 pre-treated callus fragments each): about 1%; increase in transformation efficiency by pretreatment ([3]; versus no pretreatment, co-cultivation with Agrobacterium strains): at least three times; PAT-positive plants [4, 7]: 4; Transformation frequency [4, 7]: about 0.75%; transformation frequency relative to callus not pre-treated ([4]; electroporation): about three times higher

Q: How did the “Number of PAT-positive lines” value [3, 5] turn out when `O=C(O)c1ccc(O)cc1O` [2,4-dihydroxybenzoic acid, 2,4 dihydroxybenzoic acid] was run?
A: The value was 1.

Q: What about the Transformation frequency [3, 5] of the same compound?
A: The Transformation frequency was 0.5%.

Q: `O=C(O)c1ccc(O)c(O)c1` [3,4-dihydroxybenzoic acid] was tested. Which “Number of PAT-positive lines” value [3, 5] did it give?
A: Its value is 2.

Q: What about the Transformation frequency [3, 5] of the same compound?
A: Its Transformation frequency is 1%.

Q: Which results are given for `Oc1ccccc1O` [catechol, 1,2-dihydroxybenzene]?
A: Number of PAT-positive lines [3, 5]: 1; Transformation frequency [3, 5]: 0.5%

Q: Which results are given for `O=C(O)c1ccc(O)cc1` [p-hydroxybenzoic acid, 4-hydroxybenzoic acid]?
A: Number of PAT-positive lines [3, 5]: 2; Transformation frequency [3, 5]: 1%

Q: Which “Number of PAT-positive lines” value [3, 5] does the source give for `COc1cc(C=O)ccc1O` [vanillin, 3-methoxy-4-hydroxybenzaldehyde] here?
A: Its value is 4.

Q: What about the Transformation frequency [3, 5] of the same compound?
A: Its Transformation frequency is 2%.

Q: What does the source list for `O=C(O)c1cc(O)c(O)c(O)c1` [gallic acid, 3,4,5-trihydroxybenzoic acid]?
A: Number of PAT-positive lines [3, 5]: 3; Transformation frequency [3, 5]: 1.5%

— patent US6372963B1, “Transformation method for plants” (Aventis CropScience N.V., priority 1998, dated 2002)
